Among the data in ChEMBL document CHEMBL4138305, “HTS by NMR for the Identification of Potent and Selective Inhibitors of Metalloenzymes” (ACS Med Chem Lett, 2018) are Kd, inhibition and IC50 values, retold here.

The source made the active and inactive calls. No cut-off for these calls is given here. Square brackets hold non-standard residues; d marks the D form. Peptide text beside a SMILES is read from it. * marks the point of attachment. d(hPhe) = N[C@H](CCc1ccccc1)C(=O)O; Bn = c1ccc(C*)cc1; NHOH = ON*

The target in assay [1] is T1, Macrophage metalloelastase (Homo sapiens, UniProt P39900). The assay is described as follows: Binding affinity to recombinant human MMP12 catalytic domain (Gly106 to […] residues) expressed in Escherichia coli BL21 codon plus by 1D 1H aliphatic NMR spectra analysis.
Target sequence in this assay (P39900 whole entry, the tested form may be a part): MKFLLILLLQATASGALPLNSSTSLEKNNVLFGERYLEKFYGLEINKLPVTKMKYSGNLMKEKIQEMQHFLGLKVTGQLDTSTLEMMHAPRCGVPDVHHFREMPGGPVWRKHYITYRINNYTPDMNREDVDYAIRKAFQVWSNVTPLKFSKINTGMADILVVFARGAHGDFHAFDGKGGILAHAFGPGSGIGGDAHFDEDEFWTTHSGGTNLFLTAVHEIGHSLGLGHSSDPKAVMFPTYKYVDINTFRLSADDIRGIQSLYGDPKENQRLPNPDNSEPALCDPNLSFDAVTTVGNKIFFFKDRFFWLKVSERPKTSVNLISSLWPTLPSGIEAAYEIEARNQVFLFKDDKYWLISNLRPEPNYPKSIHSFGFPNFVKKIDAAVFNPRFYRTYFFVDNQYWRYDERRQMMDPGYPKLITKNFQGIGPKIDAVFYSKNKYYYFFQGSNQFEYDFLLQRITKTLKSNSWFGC
Assay [2] has as its target Matrix metalloproteinase-14 (Homo sapiens) (UniProt P50281). Nature of the assay: Inhibition of MMP14 (unknown origin) at 1 uM.
Assay [3] concerns the target T1, Macrophage metalloelastase. Nature of the assay: Inhibition of recombinant human C-terminal DYKDDDDK tagged MMP12 expressed in mammalian expression system at 55 to 100 nM.
Target sequence in this assay (P39900 106-470 limits assumed): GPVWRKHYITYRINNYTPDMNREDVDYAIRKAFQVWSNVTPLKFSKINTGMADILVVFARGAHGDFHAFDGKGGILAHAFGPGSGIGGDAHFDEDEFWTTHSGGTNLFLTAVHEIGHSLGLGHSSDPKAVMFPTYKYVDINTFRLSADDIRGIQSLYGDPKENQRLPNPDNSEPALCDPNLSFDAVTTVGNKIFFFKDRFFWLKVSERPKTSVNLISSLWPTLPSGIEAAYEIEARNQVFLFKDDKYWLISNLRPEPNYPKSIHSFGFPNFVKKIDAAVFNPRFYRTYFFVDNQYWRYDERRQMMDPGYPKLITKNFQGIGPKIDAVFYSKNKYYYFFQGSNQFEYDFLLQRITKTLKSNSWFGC
Assay [4] addresses Matrix metalloproteinase-9 (Homo sapiens) (UniProt P14780). Nature of the assay: Inhibition of MMP9 (unknown origin) at 1 uM.
In assay [5] the target is Stromelysin-1 (Homo sapiens) (UniProt P08254). The assay is described as follows: Inhibition of recombinant human C-terminal DYKDDDDK tagged MMP3 expressed in mammalian expression system at 1 uM relative to control.
The target of assay [6] is T1, Macrophage metalloelastase. Nature of the assay: Inhibition of recombinant human MMP12 catalytic domain (Gly106 to […] residues) expressed in Escherichia coli BL21 codon plus using Mca-Pro-Leu-Gly-Leu-Dpa-Ala-Arg-NH2 as substrate by fluorescence assay.
Target sequence in this assay (P39900 whole entry, the tested form may be a part): as the sequence (P39900 whole entry, the tested form may be a part) above
Assay [7] has as its target T2, Interstitial collagenase (Homo sapiens) (UniProt P03956).
T2 sequence (whole entry): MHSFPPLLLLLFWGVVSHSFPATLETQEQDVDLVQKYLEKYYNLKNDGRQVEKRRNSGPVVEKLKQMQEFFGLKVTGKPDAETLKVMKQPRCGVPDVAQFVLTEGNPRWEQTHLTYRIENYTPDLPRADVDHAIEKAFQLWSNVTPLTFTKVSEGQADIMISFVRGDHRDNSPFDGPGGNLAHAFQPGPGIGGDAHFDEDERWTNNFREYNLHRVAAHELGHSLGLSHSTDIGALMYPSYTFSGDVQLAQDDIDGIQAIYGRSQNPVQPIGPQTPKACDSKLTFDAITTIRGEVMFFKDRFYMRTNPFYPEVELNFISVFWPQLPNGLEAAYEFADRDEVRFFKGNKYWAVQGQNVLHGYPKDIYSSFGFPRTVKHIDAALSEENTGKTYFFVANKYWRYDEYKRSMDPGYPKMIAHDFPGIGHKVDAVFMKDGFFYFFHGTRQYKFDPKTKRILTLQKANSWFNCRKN
The assay is described as follows: Inhibition of MMP1 (unknown origin) at 1 uM.

Assay [8] concerns the target Stromelysin-1 (Homo sapiens) (UniProt P08254). The assay is described as follows: Inhibition of recombinant human C-terminal DYKDDDDK tagged MMP3 expressed in mammalian expression system at 55 nM relative to control.
Assay [9] deals with T1, Macrophage metalloelastase. Nature of the assay: Binding affinity to recombinant human MMP12 catalytic domain (Gly106 to […] residues) expressed in Escherichia coli BL21 codon plus by 2D [15N,1H] HMQC spectra analysis.
Target sequence in this assay (P39900 whole entry, the tested form may be a part): as the sequence (P39900 whole entry, the tested form may be a part) above
Assay [10] deals with T1, Macrophage metalloelastase. The note with it: 1 uM.
Target sequence in this assay (P39900 106-470 limits assumed): as the sequence (P39900 106-470 limits assumed) above

Chain of Stromelysin-1 (Homo sapiens) (P08254 100-477 limits assumed): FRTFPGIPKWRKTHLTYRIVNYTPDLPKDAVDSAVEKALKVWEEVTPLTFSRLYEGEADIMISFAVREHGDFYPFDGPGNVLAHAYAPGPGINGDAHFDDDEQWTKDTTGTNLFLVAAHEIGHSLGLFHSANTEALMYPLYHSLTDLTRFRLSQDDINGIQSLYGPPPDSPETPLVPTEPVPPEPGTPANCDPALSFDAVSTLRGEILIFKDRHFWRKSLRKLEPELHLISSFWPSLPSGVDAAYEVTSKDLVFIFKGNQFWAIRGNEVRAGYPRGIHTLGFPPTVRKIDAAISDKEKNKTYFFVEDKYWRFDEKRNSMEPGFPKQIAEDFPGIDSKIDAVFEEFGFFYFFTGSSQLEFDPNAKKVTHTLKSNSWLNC
Chain of Matrix metalloproteinase-9 (Homo sapiens) (P14780 whole entry): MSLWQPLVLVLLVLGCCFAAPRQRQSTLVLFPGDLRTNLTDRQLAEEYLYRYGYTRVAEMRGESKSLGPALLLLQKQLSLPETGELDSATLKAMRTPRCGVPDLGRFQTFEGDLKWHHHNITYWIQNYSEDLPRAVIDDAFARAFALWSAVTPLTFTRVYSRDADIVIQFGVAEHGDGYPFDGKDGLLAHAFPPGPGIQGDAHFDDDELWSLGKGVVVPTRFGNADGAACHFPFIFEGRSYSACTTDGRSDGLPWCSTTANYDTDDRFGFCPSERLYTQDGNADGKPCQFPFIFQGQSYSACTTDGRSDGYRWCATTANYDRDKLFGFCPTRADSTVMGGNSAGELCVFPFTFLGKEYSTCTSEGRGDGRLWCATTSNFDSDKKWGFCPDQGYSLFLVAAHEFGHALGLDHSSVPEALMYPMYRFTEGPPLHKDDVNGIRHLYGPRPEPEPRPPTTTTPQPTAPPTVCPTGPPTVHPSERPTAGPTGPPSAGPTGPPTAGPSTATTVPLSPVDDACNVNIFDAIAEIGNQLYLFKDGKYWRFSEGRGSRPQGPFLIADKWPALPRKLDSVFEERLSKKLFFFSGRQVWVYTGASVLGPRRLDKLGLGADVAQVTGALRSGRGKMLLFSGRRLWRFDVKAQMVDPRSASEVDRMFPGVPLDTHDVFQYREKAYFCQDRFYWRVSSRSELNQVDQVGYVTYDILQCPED

Regarding `CC(=O)N[C@@H](COCc1ccccc1)C(=O)N[C@H](CCc1ccccc1)C(=O)N[C@H](Cc1ccccc1)C(=O)NO` (Ac-Ser(Bn)-[d(hPhe)]-[dF]-{NHOH}), the Kd in assay [1] and in [9] was below 50 nM each time. For the same compound, the inhibition result in assay [2], in [3], in assay [4] and in assay [7] was “Active” in each case. In addition, the inhibition is 78% in assay [5] and 19% in [8]. Moreover, the IC50 in assay [6] came out at 54.7 nM.
`CNC(=O)[C@H](Cc1c[nH]c2ccccc12)NC(=O)[C@@H](CC(=O)NO)CC(C)C` [ILOMASTAT]: the inhibition entry in assay [2], in assay [4], in assay [5], in assay [7] and in assay [10] was “Active” in each case. The IC50 in assay [6] came out at 5.2 nM.

As a reminder, the Kd is the free concentration of one partner at which half of the binding sites on the other are occupied at equilibrium, for simple one-to-one binding. The term inhibition denotes the percentage by which the read-out fell short of the control. As a reminder, the IC50 is the concentration that gives 50% inhibition.
